The format of data set [1] is in vivo, human. Conditions: for Time at Smax: 8 h iv infusion of d5-ALA-albumin 0.78 mg/kg BW/hr; for F (turnover of esterified n-3 HUFA in plasma): Jsyn / amount in plasma total lipids; for Jsyn (whole-body synthesis-secretion rate): both subjects.
For data set [2] the following is noted: ref Domenichiello et al. 2014, Domenichiello et al. 2016, Metherel et al. 2018, cited from earlier work.
For data set [3] the following is noted: compartmental modeling, humans; ref Pawlosky et al. 2001; cited from earlier work.
Data set [4] in a line: Plasma unlabeled fatty acid concentrations. It counts as in vivo, human.
The mark [5] stands for this setting: subject S01, k1 x unesterified ALA 2.52 nmol/mL.
The mark [6] stands for this setting: subject S02, k1 x unesterified ALA 4.74 nmol/mL.
[7] abbreviates: subject S01, unlabeled, mean of 17 time points, low linoleate diet.
The mark [8] stands for this setting: subject S02, unlabeled, mean of 17 time points, low linoleate diet.

Where two headings read alike, the source gives them in different places.

As to `CC/C=C\C/C=C\C/C=C\C/C=C\C/C=C\C/C=C\CCC(=O)O` [DHA, Docosahexaenoic acid], in data set [1] (subject S01), the “Smax (maximal first derivative of plasma total amount time-course of newly synthesized d5-n-3 HUFA)” value is on record as 0.67 nmol/min, the “k1 (synthesis-secretion coefficient)” value was determined as 0.39 mL/min, the “Time at Smax” value was determined as 109 min and the “F (turnover of esterified n-3 HUFA in plasma)” value was found to be 2.6e-06 min⁻¹. The “Jsyn (whole body synthesis-secretion rate from circulating unesterified 18:3n-3)” value in data set [1] (setting [5]) was determined as 0.99 nmol/min. For the same compound, in data set [1] (subject S02), the “Smax (maximal first derivative of plasma total amount time-course of newly synthesized d5-n-3 HUFA)” value was found to be 0.21 nmol/min, the “k1 (synthesis-secretion coefficient)” value is 0.12 mL/min, the “Time at Smax” value is reported as 125 min and the “F (turnover of esterified n-3 HUFA in plasma)” value turned out to be 3.7e-06 min⁻¹. For the same compound, the “Jsyn (whole body synthesis-secretion rate from circulating unesterified 18:3n-3)” value in data set [1] (setting [6]) was determined as 0.56 nmol/min. The “Whole body synthesis-secretion rate of DHA from circulating ALA” value in data set [2] (rats consuming a high ALA diet) was 1.5 µmol/day. For the same compound, the “Whole body synthesis-secretion rate of DHA from circulating ALA” value in data set [2] (rats consuming a low ALA containing diet) is 0.045 µmol/day. Further, in data set [3], the “Rate of mass flow from immediate precursor” value (shortened to “Rate of mass flow”) was 0.464 µmol/day.

For the compound `CCCCCCCC/C=C\CCCCCCCC(=O)O` [18:1n-9], the “Fatty acid concentration in plasma total lipids (mean)” value (“Fatty acid concentration” for short) in data set [4] (in vivo) worked out at 896 nmol/mL.

Turning to `CCCCCCCCCCCCCC(=O)O` [14:0], the “Fatty acid concentration” value in data set [4] (setting [7]) worked out at 43.9 nmol/mL; in data set [4] (setting [8]), 36.8 nmol/mL.

For `CC/C=C\C/C=C\C/C=C\CCCCCCCC(=O)O` [ALA, α-linolenic acid], the entries for the “Plasma concentration of unesterified unlabeled ALA” value in data set [4] (subject S01) and in data set [4] (subject S02) were 2.52 µM and 4.74 µM, respectively. Further, the “Fatty acid concentration” value in data set [4] (setting [7]) was found to be 24.3 nmol/mL; in data set [4] (setting [8]), 33.5 nmol/mL.

Turning to `CCCCCC/C=C/CCCCCCCCCC(=O)O` [18:1n-7], the results for the “Fatty acid concentration” value in data set [4] (setting [7]) and in data set [4] (setting [8]) were 98.0 nmol/mL and 104 nmol/mL, respectively.

For the compound `CC/C=C\C/C=C\C/C=C\C/C=C\C/C=C\CCCCCC(=O)O` [DPAn-3, docosapentaenoic acid], in data set [1] (subject S01), the “Smax (maximal first derivative of plasma total amount time-course of newly synthesized d5-n-3 HUFA)” value worked out at 2.43 nmol/min, the “k1 (synthesis-secretion coefficient)” value was determined as 1.44 mL/min, the “Time at Smax” value amounted to 94 min and the “F (turnover of esterified n-3 HUFA in plasma)” value was determined as 8.8e-05 min⁻¹. Also, in data set [1] (setting [5]), the “Jsyn (whole body synthesis-secretion rate from circulating unesterified 18:3n-3)” value came to 3.62 nmol/min. In data set [1] (subject S02), the “Smax (maximal first derivative of plasma total amount time-course of newly synthesized d5-n-3 HUFA)” value came out at 4.14 nmol/min, the “k1 (synthesis-secretion coefficient)” value worked out at 2.32 mL/min, the “Time at Smax” value was 156 min and the “F (turnover of esterified n-3 HUFA in plasma)” value was determined as 0.00019 min⁻¹. In data set [1] (setting [6]), the “Jsyn (whole body synthesis-secretion rate from circulating unesterified 18:3n-3)” value was 11.0 nmol/min. Also, in data set [3], the “Rate of mass flow” value was 0.075 µmol/day.

As to tetracosahexaenoic acid [THA], the “Jsyn (whole-body synthesis-secretion rate)” value in data set [1] was in the range of 0.5 to 0.6 nmol/min. Moreover, in data set [1] (subject S01), the “Smax (maximal first derivative of plasma total amount time-course of newly synthesized d5-n-3 HUFA)” value came to 0.41 nmol/min, the “k1 (synthesis-secretion coefficient)” value worked out at 0.24 mL/min, the “Time at Smax” value is 102 min and the “F (turnover of esterified n-3 HUFA in plasma)” value is 5.8e-05 min⁻¹. In data set [1] (setting [5]), the “Jsyn (whole body synthesis-secretion rate from circulating unesterified 18:3n-3)” value was determined as 0.61 nmol/min. For the same compound, in data set [1] (subject S02), the “Smax (maximal first derivative of plasma total amount time-course of newly synthesized d5-n-3 HUFA)” value was found to be 0.17 nmol/min, the “k1 (synthesis-secretion coefficient)” value is 0.10 mL/min, the “Time at Smax” value is recorded as 125 min and the “F (turnover of esterified n-3 HUFA in plasma)” value is 0.0001 min⁻¹. In addition, the “Jsyn (whole body synthesis-secretion rate from circulating unesterified 18:3n-3)” value in data set [1] (setting [6]) is 0.46 nmol/min. The “Fatty acid concentration” value in data set [4] (setting [7]) was determined as 2.8 nmol/mL. Besides, the “Fatty acid concentration” value in data set [4] (setting [8]) amounted to 1.5 nmol/mL.

With `CC/C=C\C/C=C\C/C=C\C/C=C\C/C=C\CCCC(=O)O` [EPA, eicosapentaenoic acid], in data set [1] (subject S01), the “Smax (maximal first derivative of plasma total amount time-course of newly synthesized d5-n-3 HUFA)” value was 3.23 nmol/min, the “k1 (synthesis-secretion coefficient)” value is recorded as 1.91 mL/min, the “Time at Smax” value turned out to be 190 min and the “F (turnover of esterified n-3 HUFA in plasma)” value is 7.7e-05 min⁻¹. For the same compound, the “Jsyn (whole body synthesis-secretion rate from circulating unesterified 18:3n-3)” value in data set [1] (setting [5]) turned out to be 4.81 nmol/min. Also, in data set [1] (subject S02), the “Smax (maximal first derivative of plasma total amount time-course of newly synthesized d5-n-3 HUFA)” value is given as 2.29 nmol/min, the “k1 (synthesis-secretion coefficient)” value was determined as 1.29 mL/min, the “Time at Smax” value is 215 min and the “F (turnover of esterified n-3 HUFA in plasma)” value was 0.00015 min⁻¹. Further, the “Jsyn (whole body synthesis-secretion rate from circulating unesterified 18:3n-3)” value in data set [1] (setting [6]) was determined as 6.09 nmol/min. Moreover, in data set [3], the “Rate of mass flow” value is 0.021 µmol/day.

As for `CC/C=C\C/C=C\C/C=C\C/C=C\C/C=C\CCCCCCCC(=O)O` [TPAn-3, tetracosapentaenoic acid], the “Jsyn (whole-body synthesis-secretion rate)” value in data set [1] was in the range of 0.5 to 0.6 nmol/min. Also, the “Smax (maximal first derivative of plasma total amount time-course of newly synthesized d5-n-3 HUFA)” value in data set [1] (subject S01) came to 0.39 nmol/min; in data set [1] (subject S02), 0.22 nmol/min. Further, the “k1 (synthesis-secretion coefficient)” value in data set [1] (subject S01) was 0.23 mL/min; in data set [1] (subject S02), 0.12 mL/min. Moreover, the “Time at Smax” value is listed as 98 min in data set [1] (subject S01) and 150 min in data set [1] (subject S02). The “F (turnover of esterified n-3 HUFA in plasma)” value was determined as 7.4e-05 min⁻¹ in data set [1] (subject S01) and 0.0001 min⁻¹ in data set [1] (subject S02). The “Jsyn (whole body synthesis-secretion rate from circulating unesterified 18:3n-3)” value in data set [1] (setting [5]) and in data set [1] (setting [6]) was 0.58 nmol/min throughout. Besides, the results for the “Fatty acid concentration” value in data set [4] (setting [7]) and in data set [4] (setting [8]) were 2.1 nmol/mL and 2.0 nmol/mL, respectively.

For the compound `CCCCCCCCCCCCCCCC(=O)O` [16:0], the “Fatty acid concentration” value is reported as 1265 nmol/mL in data set [4] (setting [7]) and 1152 nmol/mL in data set [4] (setting [8]).

On to `CCCCCCCCCCCCCCCCCCCCCCCC(=O)O` [24:0], for which the “Fatty acid concentration” value in data set [4] (setting [7]) was determined as 21.5 nmol/mL; in data set [4] (setting [8]) it was 15.2 nmol/mL.

Source of the values: article PMC6105524 (Lipids, 2018).
